Earlier results as cited in US5955321A, “Production and use of compositions comprising high concentrations of vitamin B12 activity” (Gist-Brocades, priority 1996, dated 1999).

Conditions: for stability to light: in isolated form

| Compound | stability in aqueous solution | stability to light |
| --- | --- | --- |
| 5'desoxyadenosylcobalamin | easily transformed to hydroxocobalamin | unstable to light |
| C/C1=C2/[N-][C@H]([C@H](CC(N)=O)[C@@]2(C)CCC(=O)NC[C@@H](C)OP(=O)([O-])O[C@H]2[C@@H](O)[C@@H](n3cnc4cc(C)c(C)cc43)O[C@@H]2CO)[C@]2(C)N=C(/C(C)=C3N=C(/C=C4N=C1[C@@H](CCC(N)=O)C\4(C)C)[C@@H](CCC(N)=O)[C@]\3(C)CC(N)=O)[C@@H](CCC(N)=O)[C@]2(C)CC(N)=O.[CH3-].[Co+3] [methylcobalamin] | easily transformed to hydroxocobalamin | unstable to light |
